Among the data in US12723063B2, “GIPR-agonist compounds” (Eli Lilly and Company, priority 2019, dated 2026) are Ki values, retold here.

Structures are written as SMILES. *1 amine or outer side, *2 acyl side, *3 side chain or, on linkers, in order; H or OH if unused. Where a SMILES comes first, the peptide text is derived from it. Side-chain parts run from the residue outwards. [ ]: non-standard residue; d: D form. The star is where a group is joined. C20 diacid = O=C(O)CCCCCCCCCCCCCCCCCCC(=O)*; C18 diacid = O=C(O)CCCCCCCCCCCCCCCCC(=O)*; αMePhe(2-F) = C[C@](N)(Cc1ccccc1F)C(=O)O; γGlu = O=C(O)[C@H](CCC(=O)[*:2])N[*:1]; 4Pal = N[C@@H](Cc1ccncc1)C(=O)O; αMeL = CC(C)C[C@](C)(N)C(=O)O; Orn = NCCC[C@H](N)C(=O)O; AEEA = NCCOCCOCC(=O)O; Aib = CC(C)(N)C(=O)O

T1 sequence (P43220 24-463): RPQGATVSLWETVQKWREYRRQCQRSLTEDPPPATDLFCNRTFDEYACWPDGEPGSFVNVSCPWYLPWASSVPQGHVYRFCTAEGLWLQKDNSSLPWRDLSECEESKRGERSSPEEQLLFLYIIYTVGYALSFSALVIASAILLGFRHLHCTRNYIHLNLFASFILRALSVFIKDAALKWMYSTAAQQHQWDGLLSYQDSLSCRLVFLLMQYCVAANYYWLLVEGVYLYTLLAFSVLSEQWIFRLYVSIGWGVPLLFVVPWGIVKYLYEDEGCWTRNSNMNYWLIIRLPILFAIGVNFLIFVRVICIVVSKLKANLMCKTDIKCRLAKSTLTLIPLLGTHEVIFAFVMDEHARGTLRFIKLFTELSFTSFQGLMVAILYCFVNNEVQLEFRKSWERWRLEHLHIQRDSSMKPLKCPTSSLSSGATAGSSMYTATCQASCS

The test addresses T1, human GLP-1R (Homo sapiens, UniProt P43220).
T1 construct: expressed in transfected cells; crude membranes
The experiment in a line: [125I]-GLP-1 binding, SPA with WGA beads, 0.1% bacitracin. As to conditions: geometric mean, read-out: hGLP1R Ki. In outline:
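Binding buffer was 25 mM HEPES pH 7.4 with 2.5 mM CaCl2, 1 mM MgCl2, 0.1% (w/v) bacitracin, 0.003% Tween-20 and EDTA-free protease inhibitors. Four-parameter regression gave IC50, converted to Ki (geometric mean, SEM, n independent days).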
The term Ki denotes the equilibrium dissociation constant of an inhibitor or competing ligand from its target. `CC[C@H](C)[C@H](NC(=O)[C@H](CCCCN)NC(=O)[C@H](CC(=O)O)NC(=O)[C@H](CC(C)C)NC(=O)[C@](C)(CC(C)C)NC(=O)[C@@H](NC(=O)[C@H](CO)NC(=O)[C@H](Cc1ccc(O)cc1)NC(=O)[C@H](CC(=O)O)NC(=O)[C@H](CO)NC(=O)[C@@H](NC(=O)[C@H](Cc1ccccc1)NC(=O)[C@@H](NC(=O)CNC(=O)[C@H](CCC(=O)O)NC(=O)C(C)(C)NC(=O)[C@@H](N)Cc1ccc(O)cc1)[C@@H](C)O)[C@@H](C)CC)[C@@H](C)CC)C(=O)N[C@@H](Cc1c[nH]cn1)C(=O)N[C@@H](CCC(N)=O)C(=O)NC(C)(C)C(=O)N[C@@H](CC(=O)O)C(=O)N[C@@H](Cc1ccccc1)C(=O)N[C@H](C(=O)N[C@@H](CCC(=O)O)C(=O)N[C@@H](Cc1ccncc1)C(=O)N[C@@H](CCCCNC(=O)COCCOCCNC(=O)COCCOCCNC(=O)CC[C@H](NC(=O)CCCCCCCCCCCCCCCCCCC(=O)O)C(=O)O)C(=O)N[C@@H](CC(C)C)C(=O)N[C@@H](CCC(=O)O)C(=O)NCC(=O)NCC(=O)N1CCC[C@H]1C(=O)N[C@@H](CO)C(=O)N[C@@H](CO)C(=O)NCC(=O)N[C@@H](C)C(=O)N1CCC[C@H]1C(=O)N1CCC[C@H]1C(=O)N1CCC[C@H]1C(=O)N[C@@H](CO)C(N)=O)C(C)C` [Example 109] (H-Y[Aib]EGTFISDYSI[αMeL]LDKIHQ[Aib]DFVE[4Pal]K([AEEA-AEEA-γGlu-C20 diacid])LEGGPSSGAPPPS-NH2): the Ki was greater than 908 nM.

For the molecule `CC[C@H](C)[C@H](NC(=O)[C@H](CCCCN)NC(=O)[C@H](CC(=O)O)NC(=O)[C@H](CC(C)C)NC(=O)[C@](C)(CC(C)C)NC(=O)[C@@H](NC(=O)[C@H](CO)NC(=O)[C@H](Cc1ccc(O)cc1)NC(=O)[C@H](CC(=O)O)NC(=O)[C@H](CO)NC(=O)[C@@H](NC(=O)[C@H](Cc1ccccc1)NC(=O)[C@@H](NC(=O)CNC(=O)[C@H](CCC(=O)O)NC(=O)C(C)(C)NC(=O)[C@@H](N)Cc1ccc(O)cc1)[C@@H](C)O)[C@@H](C)CC)[C@@H](C)CC)C(=O)N[C@@H](Cc1c[nH]cn1)C(=O)N[C@@H](CCC(N)=O)C(=O)NC(C)(C)C(=O)N[C@@H](CC(=O)O)C(=O)N[C@@H](Cc1ccccc1)C(=O)N[C@H](C(=O)N[C@@H](CCC(=O)O)C(=O)N[C@@H](Cc1ccncc1)C(=O)N[C@@H](CCCCNC(=O)COCCOCCNC(=O)COCCOCCNC(=O)CC[C@H](NC(=O)CCCCCCCCCCCCCCCCC(=O)O)C(=O)O)C(=O)N[C@@H](CC(C)C)C(=O)N[C@@H](CCC(=O)O)C(=O)NCC(=O)NCC(=O)N1CCC[C@H]1C(=O)N[C@@H](CO)C(=O)N[C@@H](CO)C(=O)NCC(=O)N[C@@H](C)C(=O)N1CCC[C@H]1C(=O)N1CCC[C@H]1C(=O)N1CCC[C@H]1C(=O)N[C@@H](CO)C(N)=O)C(C)C` [Example 110] (H-Y[Aib]EGTFISDYSI[αMeL]LDKIHQ[Aib]DFVE[4Pal]K([AEEA-AEEA-γGlu-C18 diacid])LEGGPSSGAPPPS-NH2), the Ki is greater than 908 nM.

In the case of `CC[C@H](C)[C@H](NC(=O)[C@H](CCCN)NC(=O)[C@H](CC(=O)O)NC(=O)[C@H](CC(C)C)NC(=O)[C@](C)(CC(C)C)NC(=O)[C@@H](NC(=O)[C@H](CO)NC(=O)[C@H](Cc1ccc(O)cc1)NC(=O)[C@H](CC(=O)O)NC(=O)[C@H](CO)NC(=O)[C@@H](NC(=O)[C@H](Cc1ccccc1)NC(=O)[C@@H](NC(=O)CNC(=O)[C@H](CCC(=O)O)NC(=O)C(C)(C)NC(=O)[C@@H](N)Cc1ccc(O)cc1)[C@@H](C)O)[C@@H](C)CC)[C@@H](C)CC)C(=O)N[C@@H](Cc1c[nH]cn1)C(=O)N[C@@H](CCC(N)=O)C(=O)NC(C)(C)C(=O)N[C@@H](CC(=O)O)C(=O)N[C@@H](Cc1ccccc1)C(=O)N[C@H](C(=O)N[C@@H](CCC(=O)O)C(=O)N[C@@H](Cc1ccncc1)C(=O)N[C@@H](CCCCNC(=O)COCCOCCNC(=O)COCCOCCNC(=O)CC[C@H](NC(=O)CCCCCCCCCCCCCCCCC(=O)O)C(=O)O)C(=O)N[C@@H](CC(C)C)C(=O)N[C@@H](CCC(=O)O)C(=O)NCC(=O)NCC(=O)N1CCC[C@H]1C(=O)N[C@@H](CO)C(=O)N[C@@H](CO)C(=O)NCC(=O)N[C@@H](C)C(=O)N1CCC[C@H]1C(=O)N1CCC[C@H]1C(=O)N1CCC[C@H]1C(=O)N[C@@H](CO)C(N)=O)C(C)C` [Example 111] (H-Y[Aib]EGTFISDYSI[αMeL]LD[Orn]IHQ[Aib]DFVE[4Pal]K([AEEA-AEEA-γGlu-C18 diacid])LEGGPSSGAPPPS-NH2), the inhibition constant Ki was greater than 908 nM.

In the case of `CC[C@H](C)[C@H](NC(=O)[C@H](CO)NC(=O)[C@H](Cc1ccc(O)cc1)NC(=O)[C@H](CC(=O)O)NC(=O)[C@H](CO)NC(=O)[C@@H](NC(=O)[C@](C)(Cc1ccccc1F)NC(=O)[C@@H](NC(=O)CNC(=O)[C@H](CCC(=O)O)NC(=O)C(C)(C)NC(=O)[C@@H](N)Cc1ccc(O)cc1)[C@@H](C)O)[C@@H](C)CC)C(=O)N[C@@H](C)C(=O)N[C@@H](CC(C)C)C(=O)N[C@@H](CC(=O)O)C(=O)N[C@@H](CCCCN)C(=O)N[C@H](C(=O)N[C@@H](Cc1c[nH]cn1)C(=O)N[C@@H](CCC(N)=O)C(=O)NC(C)(C)C(=O)N[C@@H](CC(=O)O)C(=O)N[C@@H](Cc1ccccc1)C(=O)N[C@H](C(=O)N[C@@H](CCC(=O)O)C(=O)N[C@@H](Cc1ccncc1)C(=O)N[C@@H](CCCCNC(=O)COCCOCCNC(=O)COCCOCCNC(=O)CC[C@H](NC(=O)CCCCCCCCCCCCCCCCCCC(=O)O)C(=O)O)C(=O)N[C@@H](CC(C)C)C(=O)N[C@@H](CCC(=O)O)C(=O)NCC(=O)NCC(=O)N1CCC[C@H]1C(=O)N[C@@H](CO)C(=O)N[C@@H](CO)C(=O)NCC(=O)N[C@@H](C)C(=O)N1CCC[C@H]1C(=O)N1CCC[C@H]1C(=O)N1CCC[C@H]1C(=O)N[C@@H](CO)C(N)=O)C(C)C)[C@@H](C)CC` [Example 112] (H-Y[Aib]EGT[αMePhe(2-F)]ISDYSIALDKIHQ[Aib]DFVE[4Pal]K([AEEA-AEEA-γGlu-C20 diacid])LEGGPSSGAPPPS-NH2), the Ki is greater than 908 nM.

Consider `CC[C@H](C)[C@H](NC(=O)[C@H](CO)NC(=O)[C@H](Cc1ccc(O)cc1)NC(=O)[C@H](CC(=O)O)NC(=O)[C@H](CO)NC(=O)[C@@H](NC(=O)[C@](C)(Cc1ccccc1F)NC(=O)[C@@H](NC(=O)CNC(=O)[C@H](CCC(=O)O)NC(=O)C(C)(C)NC(=O)[C@@H](N)Cc1ccc(O)cc1)[C@@H](C)O)[C@@H](C)CC)C(=O)N[C@@H](C)C(=O)N[C@@H](CC(C)C)C(=O)N[C@@H](CC(=O)O)C(=O)N[C@@H](CCCCN)C(=O)N[C@H](C(=O)N[C@@H](Cc1c[nH]cn1)C(=O)N[C@@H](CCC(N)=O)C(=O)NC(C)(C)C(=O)N[C@@H](CC(=O)O)C(=O)N[C@@H](Cc1ccccc1)C(=O)N[C@H](C(=O)N[C@@H](CCC(=O)O)C(=O)N[C@@H](Cc1ccncc1)C(=O)N[C@@H](CCCCNC(=O)COCCOCCNC(=O)COCCOCCNC(=O)CC[C@H](NC(=O)CCCCCCCCCCCCCCCCCCC(=O)O)C(=O)O)C(=O)N[C@@H](CC(C)C)C(=O)N[C@@H](CCC(=O)O)C(=O)N[C@@H](C)C(=O)NCC(=O)N1CCC[C@H]1C(=O)N[C@@H](CO)C(=O)N[C@@H](CO)C(=O)NCC(=O)N[C@@H](C)C(=O)N1CCC[C@H]1C(=O)N1CCC[C@H]1C(=O)N1CCC[C@H]1C(=O)N[C@@H](CO)C(N)=O)C(C)C)[C@@H](C)CC` [Example 113] (H-Y[Aib]EGT[αMePhe(2-F)]ISDYSIALDKIHQ[Aib]DFVE[4Pal]K([AEEA-AEEA-γGlu-C20 diacid])LEAGPSSGAPPPS-NH2), for which the inhibition constant Ki is greater than 921 nM.
